What was measured:
Assay in all cases: relative viability (nuclei count vs DMSO), 5 days (fraction); higher = more cells survive
A-427 = test system: A-427
Method in brief: (§1)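 Relative viability divides the nuclei count in treated wells by that in vehicle wells. Lung cancer cell lines were seeded in 1536-well plates, dosed by pin tool the next day, and fixed and stained after 5 days in one step with final 0.05% Triton X-100, 1% formaldehyde and 1 ug/ml Hoechst. Dosing was a single drug or a fixed anchor-drug dose plus five library-drug doses (not always all listed) in √10 steps, and values are medians of duplicate plates imaged at 4×.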

NCI-H460 = test system: NCI-H460
Method in brief: as §1

BEN = test system: BEN
Method in brief: as §1

HCC-15 = test system: HCC-15
Method in brief: as §1

NCI-H2405 = test system: NCI-H2405
Method in brief: as §1

EMC-BAC-2 = test system: EMC-BAC-2
Method in brief: as §1

HOP-62 = test system: HOP-62
Method in brief: as §1

NCI-H522 = test system: NCI-H522
Method in brief: as §1

201T = test system: 201T
Method in brief: as §1

NCI-H1563 = test system: NCI-H1563
Method in brief: as §1

NCI-H661 = test system: NCI-H661
Method in brief: as §1

LK-2 = test system: LK-2
Method in brief: as §1

NCI-H1734 = test system: NCI-H1734
Method in brief: as §1

EKVX = test system: EKVX
Method in brief: as §1

COR-L 105 = test system: COR-L 105
Method in brief: as §1

PC-14 = test system: PC-14
Method in brief: as §1

COR-L23 = test system: COR-L23
Method in brief: as §1

HCC-78 = test system: HCC-78
Method in brief: as §1

NCI-H647 = test system: NCI-H647
Method in brief: as §1

NCI-H1993 = test system: NCI-H1993
Method in brief: as §1

HCC-366 = test system: HCC-366
Method in brief: as §1

SK-MES-1 = test system: SK-MES-1
Method in brief: as §1

NCI-H1915 = test system: NCI-H1915
Method in brief: as §1

Cc1cn(-c2cc(NC(=O)c3ccc(C)c(Nc4nccc(-c5cccnc5)n4)c3)cc(C(F)(F)F)c2)cn1 [Nilotinib] + Cc1nc(Nc2ncc(C(=O)Nc3c(C)cccc3Cl)s2)cc(N2CCN(CCO)CC2)n1 [Dasatinib] (partner 0.075 µM)
relative viability (A-427; first compound 0.001 µM): 0.663
relative viability (A-427; first compound 0.003162 µM): 0.728
relative viability (A-427; first compound 0.01 µM): 0.72
relative viability (A-427; first compound 0.03162 µM): 0.54
relative viability (A-427; first compound 0.1 µM): 0.1
relative viability (NCI-H460; first compound 0.001 µM): 0.487
relative viability (NCI-H460; first compound 0.003162 µM): 0.384
relative viability (NCI-H460; first compound 0.01 µM): 0.65
relative viability (NCI-H460; first compound 0.03162 µM): 0.444
relative viability (NCI-H460; first compound 0.1 µM): 0.432
relative viability (BEN; first compound 0.001 µM): 0.336
relative viability (BEN; first compound 0.003162 µM): 0.338
relative viability (BEN; first compound 0.01 µM): 0.278
relative viability (BEN; first compound 0.03162 µM): 0.322
relative viability (BEN; first compound 0.1 µM): 0.221
relative viability (HCC-15; first compound 0.001 µM): 0.607
relative viability (HCC-15; first compound 0.003162 µM): 0.689
relative viability (HCC-15; first compound 0.01 µM): 0.665
relative viability (HCC-15; first compound 0.03162 µM): 0.456
relative viability (HCC-15; first compound 0.1 µM): 0.433
relative viability (NCI-H2405; first compound 0.001 µM): 0.219
relative viability (NCI-H2405; first compound 0.003162 µM): 0.205
relative viability (NCI-H2405; first compound 0.01 µM): 0.214
relative viability (NCI-H2405; first compound 0.03162 µM): 0.221
relative viability (NCI-H2405; first compound 0.1 µM): 0.207
relative viability (EMC-BAC-2; first compound 0.001 µM): 0.308
relative viability (EMC-BAC-2; first compound 0.003162 µM): 0.308
relative viability (EMC-BAC-2; first compound 0.01 µM): 0.325
relative viability (EMC-BAC-2; first compound 0.03162 µM): 0.27
relative viability (EMC-BAC-2; first compound 0.1 µM): 0.296
relative viability (HOP-62; first compound 0.001 µM): 0.603
relative viability (HOP-62; first compound 0.003162 µM): 0.67
relative viability (HOP-62; first compound 0.01 µM): 0.66
relative viability (HOP-62; first compound 0.03162 µM): 0.491
relative viability (HOP-62; first compound 0.1 µM): 0.476
relative viability (NCI-H522; first compound 0.001 µM): 0.851
relative viability (NCI-H522; first compound 0.003162 µM): 0.873
relative viability (NCI-H522; first compound 0.01 µM): 1.16
relative viability (NCI-H522; first compound 0.03162 µM): 0.715
relative viability (NCI-H522; first compound 0.1 µM): 0.596
relative viability (201T; first compound 0.01 µM): 0.404
relative viability (201T; first compound 0.03162 µM): 0.451
relative viability (201T; first compound 0.1 µM): 0.295
relative viability (NCI-H1563; first compound 0.001 µM): 0.447
relative viability (NCI-H1563; first compound 0.003162 µM): 0.447
relative viability (NCI-H1563; first compound 0.01 µM): 0.442
relative viability (NCI-H1563; first compound 0.03162 µM): 0.492
relative viability (NCI-H1563; first compound 0.1 µM): 0.329
relative viability (NCI-H661; first compound 0.001 µM): 0.923
relative viability (NCI-H661; first compound 0.003162 µM): 0.956
relative viability (NCI-H661; first compound 0.01 µM): 0.921
relative viability (NCI-H661; first compound 0.03162 µM): 0.635
relative viability (NCI-H661; first compound 0.1 µM): 0.613
relative viability (LK-2; first compound 0.001 µM): 0.311
relative viability (LK-2; first compound 0.003162 µM): 0.239
relative viability (LK-2; first compound 0.01 µM): 0.294
relative viability (LK-2; first compound 0.03162 µM): 0.247
relative viability (LK-2; first compound 0.1 µM): 0.183
relative viability (NCI-H1734; first compound 0.001 µM): 0.355
relative viability (NCI-H1734; first compound 0.003162 µM): 0.477
relative viability (NCI-H1734; first compound 0.01 µM): 0.506
relative viability (NCI-H1734; first compound 0.03162 µM): 0.345
relative viability (NCI-H1734; first compound 0.1 µM): 0.304
relative viability (EKVX; first compound 0.001 µM): 0.461
relative viability (EKVX; first compound 0.003162 µM): 0.477
relative viability (EKVX; first compound 0.01 µM): 0.554
relative viability (EKVX; first compound 0.03162 µM): 0.467
relative viability (EKVX; first compound 0.1 µM): 0.432
relative viability (COR-L 105; first compound 0.001 µM): 0.374
relative viability (COR-L 105; first compound 0.003162 µM): 0.357
relative viability (COR-L 105; first compound 0.01 µM): 0.297
relative viability (COR-L 105; first compound 0.03162 µM): 0.345
relative viability (COR-L 105; first compound 0.1 µM): 0.222
relative viability (PC-14; first compound 0.001 µM): 0.226
relative viability (PC-14; first compound 0.003162 µM): 0.254
relative viability (PC-14; first compound 0.01 µM): 0.198
relative viability (PC-14; first compound 0.03162 µM): 0.16
relative viability (PC-14; first compound 0.1 µM): 0.0622
relative viability (COR-L23; first compound 0.001 µM): 0.482
relative viability (COR-L23; first compound 0.003162 µM): 0.501
relative viability (COR-L23; first compound 0.01 µM): 0.511
relative viability (COR-L23; first compound 0.03162 µM): 0.265
relative viability (COR-L23; first compound 0.1 µM): 0.407
relative viability (HCC-78; first compound 0.001 µM): 0.442
relative viability (HCC-78; first compound 0.003162 µM): 0.357
relative viability (HCC-78; first compound 0.01 µM): 0.404
relative viability (HCC-78; first compound 0.03162 µM): 0.252
relative viability (HCC-78; first compound 0.1 µM): 0.268
relative viability (NCI-H647; first compound 0.001 µM): 0.195
relative viability (NCI-H647; first compound 0.003162 µM): 0.274
relative viability (NCI-H647; first compound 0.01 µM): 0.262
relative viability (NCI-H647; first compound 0.03162 µM): 0.101
relative viability (NCI-H647; first compound 0.1 µM): 0.0706
relative viability (NCI-H1993; first compound 0.001 µM): 0.625
relative viability (NCI-H1993; first compound 0.003162 µM): 0.546
relative viability (NCI-H1993; first compound 0.01 µM): 0.495
relative viability (NCI-H1993; first compound 0.03162 µM): 0.516
relative viability (NCI-H1993; first compound 0.1 µM): 0.627
relative viability (HCC-366; first compound 0.001 µM): 0.614
relative viability (HCC-366; first compound 0.003162 µM): 0.938
relative viability (HCC-366; first compound 0.01 µM): 0.958
relative viability (HCC-366; first compound 0.03162 µM): 0.4
relative viability (HCC-366; first compound 0.1 µM): 0.181
relative viability (SK-MES-1; first compound 0.001 µM): 0.306
relative viability (SK-MES-1; first compound 0.003162 µM): 0.334
relative viability (SK-MES-1; first compound 0.01 µM): 0.308
relative viability (SK-MES-1; first compound 0.03162 µM): 0.29
relative viability (SK-MES-1; first compound 0.1 µM): 0.207
relative viability (NCI-H1915; first compound 0.001 µM): 0.324
relative viability (NCI-H1915; first compound 0.003162 µM): 0.314
relative viability (NCI-H1915; first compound 0.01 µM): 0.354
relative viability (NCI-H1915; first compound 0.03162 µM): 0.27
relative viability (NCI-H1915; first compound 0.1 µM): 0.141

From the supplement of paper PMC10307832
